Tests used:
[1] = in vitro study of arginine, CGP and HPC, enamel microhardness (FIG. 3); set-up: species or system bovine; details: after 10 days of exposure
Text: The in vitro study used bovine tooth enamel slabs which were polished and then subjected to an initial tooth softening step using lactic acid. An initial microhardness measurement was then made on each enamel specimen. The enamel specimens were subjected to four pH cycles per day, each cycle comprising a thirty-minute acid demineralization step followed by a twenty-minute lozenge remineralization step. Final microhardness measurements were taken on each specimen after 10 days of treatment and after 20 days of treatment. A fluoride dentifrice and a no-lozenge control sample were analyzed according to the same procedure for comparison purposes.
The latter two alternatives, chitosan and biofilm dispersing agents, were ruled out because they lacked approval for food use. Arginine was selected as the leading candidate for further evaluation. A new in vitro study was undertaken to evaluate arginine alone and in combination with CGP and HPC. CGP alone, CGP with HPC and fluoride were also investigated. The testing procedure was substantially the same as the in vitro study for calcium salts.
The height of each bar represents the change in the KHN as calculated by ΔKHN=KHN10-DAY−KHNINITIAL.

[2] = sugar alcohol assessment of salivary flow and time in mouth (FIG. 4); format: in vivo; details: test subjects using a mint vs at rest with no mint; preliminary results
Text: In addition to evaluating additives for their ability to provide tooth strengthening properties, the inventors also investigated a number of sugar alcohols, individually and in combination, for their ability to increase salivary flow and TIM. The investigation included dual layer formulations as well as compressed tablets. Greater salivary flow is desirable to create calcium delivery and increased TIM provides greater delivery time for active ingredients to have an effect. In FIG. 4, the blue bars represent the average salivary flow difference (in ml/min) between test subjects at rest with no mint versus test subjects using a mint. The green bars represent the average dissolution time in seconds/1000.

| Compound | change in enamel microhardness (ΔKHN) [1] | average salivary flow difference [2] |
| --- | --- | --- |
| N=C(N)NCCC[C@H](N)C(=O)O [Arginine] | did not produce significant results |  |
| Cl.N=C(N)NCCC[C@H](N)C(=O)O [arginine HCl] | did not produce significant results |  |
| OC[C@@H](O)[C@@H](O)CO [erythritol] |  | stimulated salivary flow |
| calcium glycerophosphate [CGP] | increase in microhardness that was very similar to the sample for fluoride |  |
